Among the data in US9598433B2, “Hepatitis C virus inhibitors” (BRISTOL-MYERS SQUIBB COMPANY, priority 2012, dated 2017) are EC50 values, retold here.

The test system of assay [1] is HCV genotype 1a (H77 strain) replicon in HUH-7 cells. Description: HCV replicon luciferase reporter assay, genotype 1a. Type of assay: cell-based. To be noted: Hepatitis C virus, 72 h, genotype 1a replicon, 3 days incubation, read-out: LE_1a (EC50, range). Put shortly:
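Stable HUH-7 line carrying luciferase-reporter genotype 1a (H77) replicon with adaptive NS3 P1496L and NS5A S2204I mutations; 3.0×10^3 cells/well in 4% FCS, 0.5% DMSO, twenty-point 3-fold titration, 3 days at 37 °C. Renilla luminescence with 7.5 μM EnduRen; EC50 by four-parameter logistic fit; CC50 by multiplexed Cell Titer-Blue.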

The subject of assay [2] is HCV genotype 1b (Con1) replicon in HUH-7 cells. Briefly: HCV replicon luciferase reporter assay, genotype 1b. Type of assay: cell-based. Particulars: Hepatitis C virus, 72 h, genotype 1b replicon, 3 days incubation, read-out: LE_1b (EC50, range). In a few lines: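 Replication was read as Renilla luciferase signal, using 7.5 μM EnduRen substrate with a 2-h incubation at 37 °C. The signal came from a HUH-7 line constitutively expressing a luciferase-tagged 1b (Con1) replicon carrying S1179I.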

Each structure is given as a SMILES string.

As usually defined, the EC50 is the concentration at which the effect is half-maximal.

On to `COc1ccc2c(O[C@@H]3C[C@H]4C(=O)N[C@]5(C(=O)NS(=O)(=O)C6CC6)C[C@H]5/C=C\CO[C@@H](C)C[C@@H](C)[C@H](NC(=O)OC(C)(C)C(F)(F)F)C(=O)N4C3)nccc2c1` [Compound 2604, 1,1,1-trifluoro-2-methylpropan-2-yl ((2R,6S,7R,9S,13aS,14aR,16aS,Z)-14a-((cyclopropylsulfonyl)carbamoyl)-2-((6-methoxyisoquinolin-1-yl)oxy)-7,9-dimethyl-5,16-dioxo-2,3,5,6,7,8,9,11,13a,14,14a,15,16,16a-tetradecahydro-1H-cyclopropa[e]pyrrolo[2,1-i][1,7,10]oxadiazacyclopentadecin-6-yl)carbamate], for which the EC50 lay within 5.01 to 35 nM in assay [1] and 1.01 to 5 nM in assay [2].

On to `CC[C@@H]1O[C@H](C)CC/C=C\[C@@H]2C[C@@]2(C(=O)NS(=O)(=O)C2(C)CC2)NC(=O)[C@@H]2C[C@@H](Oc3ncc(OC)c4ccc(F)cc34)CN2C(=O)[C@H]1NC(=O)OC(C)(C)C(C)(F)F` [Compound 2605, 3,3-difluoro-2-methylbutan-2-yl ((2R,6S,7S,9R,13aS,14aR,16aS,Z)-7-ethyl-2-((7-fluoro-4-methoxyisoquinolin-1-yl)oxy)-9-methyl-14a-(((1-methylcyclopropyl)sulfonyl)carbamoyl)-5,16-dioxo-2,3,5,6,7,9,10,11,13a,14,14a,15,16,16a-tetradecahydro-1H-cyclopropa[i]pyrrolo[1,2-e][1,5,8]oxadiazacyclopentadecin-6-yl)carbamate], for which the EC50 in assay [1] was 0.51 to 1 nM; in assay [2] it was 0.1 to 0.5 nM.

Regarding `CC[C@@H]1O[C@H](C)CC/C=C\[C@@H]2C[C@@]2(C(=O)NS(=O)(=O)C2(C)CC2)NC(=O)[C@@H]2C[C@@H](Oc3ncc(OC)c4ccc(F)cc34)CN2C(=O)[C@H]1NC(=O)OC(C)(C)C(F)(F)F` [Compound 2606], the EC50 in assay [1] was in the range of 0.51 to 1 nM; in assay [2], 0.1 to 0.5 nM.

As for `CCOc1cc2ccnc(O[C@@H]3C[C@H]4C(=O)N[C@]5(C(=O)NS(=O)(=O)C6(C)CC6)C[C@H]5/C=C\CC[C@@H](C)O[C@@H](CC)[C@H](NC(=O)OC(C)(C)C(C)(F)F)C(=O)N4C3)c2cc1F` [Compound 2607, 3,3-difluoro-2-methylbutan-2-yl ((2R,6S,7S,9R,13 aS,14aR,16aS,Z)-2-((6-ethoxy-7-fluoroisoquinolin-1-yl)oxy)-7-ethyl-9-methyl-14a-(((1-methylcyclopropyl)sulfonyl)carbamoyl)-5,16-dioxo-2,3,5,6,7,9,10,11,13a,14,14a,15,16,16a-tetradecahydro-1H-cyclopropa[i]pyrrolo[1,2-e][1,5,8]oxadiazacyclopentadecin-6-yl)carbamate], the concentration giving a half-maximal response (EC50) in assay [1] is 0.51 to 1 nM; in assay [2], 0.1 to 0.5 nM.

For `CCOc1cc2ccnc(O[C@@H]3C[C@H]4C(=O)N[C@]5(C(=O)NS(=O)(=O)C6(C)CC6)C[C@H]5/C=C\CC[C@@H](C)O[C@@H](CC)[C@H](NC(=O)OC(C)(C)C(F)(F)F)C(=O)N4C3)c2cc1F` [Compound 2608, 1,1,1-trifluoro-2-methylpropan-2-yl ((2R,6S,7S,9R,13aS,14aR,16aS,Z)-2-((6-ethoxy-7-fluoroisoquinolin-1-yl)oxy)-7-ethyl-9-methyl-14a-(((1-methylcyclopropyl)sulfonyl)carbamoyl)-5,16-dioxo-2,3,5,6,7,9,10,11,13a,14,14a,15,16,16a-tetradecahydro-1H-cyclopropa[i]pyrrolo[1,2-e][1,5,8]oxadiazacyclopentadecin-6-yl)carbamate], the EC50 lay within 0.51 to 1 nM in assay [1] and 0.1 to 0.5 nM in assay [2].

Consider `CC[C@@H]1O[C@H](C)CC/C=C\[C@@H]2C[C@@]2(C(=O)NS(=O)(=O)C2(C)CC2)NC(=O)[C@@H]2C[C@@H](Oc3nccc4c5c(ccc34)OCCO5)CN2C(=O)[C@H]1NC(=O)OC(C)(C)C(C)(F)F` [Compound 2609, 3,3-difluoro-2-methylbutan-2-yl ((2R,6S,7S,9R,13aS,14aR,16aS,Z)-2-((2,3-dihydro-[1,4]dioxino[2,3-f]isoquinolin-7-yl)oxy)-7-ethyl-9-methyl-14a-(((1-methylcyclopropyl)sulfonyl)carbamoyl)-5,16-dioxo-2,3,5,6,7,9,10,11,13a,14,14a,15,16,16a-tetradecahydro-1H-cyclopropa[i]pyrrolo[1,2-e][1,5,8]oxadiazacyclopentadecin-6-yl)carbamate], for which the EC50 lay within 1.01 to 5 nM in assay [1] and 0.51 to 1 nM in assay [2].

For the compound `CC[C@@H]1O[C@H](C)CC/C=C\[C@@H]2C[C@@]2(C(=O)NS(=O)(=O)C2(C)CC2)NC(=O)[C@@H]2C[C@@H](Oc3nccc4c5c(ccc34)OCCO5)CN2C(=O)[C@H]1NC(=O)OC(C)(C)C(F)(F)F` [Compound 2610, 1,1,1-trifluoro-2-methylpropan-2-yl ((2R,6S,7S,9R,13aS,14aR,16aS,Z)-2-((2,3-dihydro-[1,4]dioxino[2,3-f]isoquinolin-7-yl)oxy)-7-ethyl-9-methyl-14a-(((1-methylcyclopropyl)sulfonyl)carbamoyl)-5,16-dioxo-2,3,5,6,7,9,10,11,13a,14,14a,15,16,16a-tetradecahydro-1H-cyclopropa[i]pyrrolo[1,2-e][1,5,8]oxadiazacyclopentadecin-6-yl)carbamate], the EC50 in assay [1] was in the range of 1.01 to 5 nM; in assay [2] it was 0.51 to 1 nM.

`CC[C@@H]1O[C@H](C)CC/C=C\[C@@H]2C[C@@]2(C(=O)NS(=O)(=O)C2(C)CC2)NC(=O)[C@@H]2C[C@@H](Oc3nccc4c5c(ccc34)OCCO5)CN2C(=O)[C@H]1NC(=O)OC(C)(C)C` [Compound 2611, tert-butyl ((2R,6S,7S,9R,13aS,14aR,16aS,Z)-2-((2,3-dihydro-[1,4]dioxino[2,3-f]isoquinolin-7-yl)oxy)-7-ethyl-9-methyl-14a-(((1-methylcyclopropyl)sulfonyl)carbamoyl)-5,16-dioxo-2,3,5,6,7,9,10,11,13a,14,14a,15,16,16a-tetradecahydro-1H-cyclopropa[i]pyrrolo[1,2-e][1,5,8]oxadiazacyclopentadecin-6-yl)carbamate]: the EC50 in assay [1] was 1.01 to 5 nM; in assay [2], 0.51 to 1 nM.

Consider `CC[C@@H]1O[C@H](C)CC/C=C\[C@@H]2C[C@@]2(C(=O)NS(=O)(=O)C2(C)CC2)NC(=O)[C@@H]2C[C@@H](Oc3nc(-c4ccc(OC(C)C)cn4)cc4cc(OC)ccc34)CN2C(=O)[C@H]1NC(=O)OC(C)(C)C(F)(F)F` [Compound 2612, 1,1,1-trifluoro-2-methylpropan-2-yl ((2R,6S,7S,9R,13aS,14aR,16aS,Z)-7-ethyl-2-((3-(5-isopropoxypyridin-2-yl)-6-methoxyisoquinolin-1-yl)oxy)-9-methyl-14a-(((1-methylcyclopropyl)sulfonyl)carbamoyl)-5,16-dioxo-2,3,5,6,7,9,10,11,13a,14,14a,15,16,16a-tetradecahydro-1H-cyclopropa[i]pyrrolo[1,2-e][1,5,8]oxadiazacyclopentadecin-6-yl)carbamate], for which the EC50 in assay [1] and in assay [2] was 1.01 to 5 nM each time.

`CC[C@@H]1O[C@H](C)CC/C=C\[C@@H]2C[C@@]2(C(=O)NS(=O)(=O)C2(C)CC2)NC(=O)[C@@H]2C[C@@H](Oc3nc(-c4ccc(OC(C)C)cn4)cc4cc(OC)ccc34)CN2C(=O)[C@H]1NC(=O)OC(C)(C)C(C)(F)F` [Compound 2613, 3,3-difluoro-2-methylbutan-2-yl ((2R,6S,7S,9R,13aS,14aR,16aS,Z)-7-ethyl-2-((3-(5-isopropoxypyridin-2-yl)-6-methoxyisoquinolin-1-yl)oxy)-9-methyl-14a-(((1-methylcyclopropyl)sulfonyl)carbamoyl)-5,16-dioxo-2,3,5,6,7,9,10,11,13a,14,14a,15,16,16a-tetradecahydro-1H-cyclopropa[i]pyrrolo[1,2-e][1,5,8]oxadiazacyclopentadecin-6-yl)carbamate]: the results for the concentration for a half-maximal effect (EC50) in assay [1] and in assay [2] were 1.01 to 5 nM and 0.1 to 0.5 nM, respectively.

Take `CCOc1cc2ccnc(O[C@@H]3C[C@H]4C(=O)N[C@]5(C(=O)NS(=O)(=O)C6(C)CC6)C[C@H]5/C=C\CC[C@@H](C)O[C@@H](CC)[C@H](NC(=O)OC(C)(C)C(F)F)C(=O)N4C3)c2cc1F` [Compound 2615, 1,1-difluoro-2-methylpropan-2-yl ((2R,6S,7S,9R,13 aS,14aR,16aS,Z)-2-((6-ethoxy-7-fluoroisoquinolin-1-yl)oxy)-7-ethyl-9-methyl-14a-(((1-methylcyclopropyl)sulfonyl)carbamoyl)-5,16-dioxo-2,3,5,6,7,9,10,11,13a,14,14a,15,16,16a-tetradecahydro-1H-cyclopropa[i]pyrrolo[1,2-e][1,5,8]oxadiazacyclopentadecin-6-yl)carbamate]: the 50% effective concentration (EC50) in assay [1] and in assay [2] was 0.51 to 1 nM throughout.

As for `CC[C@@H]1O[C@H](C)CC/C=C\[C@@H]2C[C@@]2(C(=O)NS(=O)(=O)C2(C)CC2)NC(=O)[C@@H]2C[C@@H](Oc3nccc4cc(OC)c(F)cc34)CN2C(=O)[C@H]1NC(=O)OC(C)(C)C(F)F` [Compound 2616], the EC50 in assay [1] and in assay [2] was 1.01 to 5 nM in each case.

Take `CC[C@@H]1O[C@H](C)CC/C=C\[C@@H]2C[C@@]2(C(=O)NS(=O)(=O)C2(C)CC2)NC(=O)[C@@H]2C[C@@H](Oc3ncc(OC)c4ccc(F)cc34)CN2C(=O)[C@H]1NC(=O)OC(C)(C)C(F)F` [Compound 2617, 1,1-difluoro-2-methylpropan-2-yl ((2R,6S,7S,9R,13aS,14aR,16aS,Z)-7-ethyl-2-((7-fluoro-4-methoxyisoquinolin-1-yl)oxy)-9-methyl-14a-(((1-methylcyclopropyl)sulfonyl)carbamoyl)-5,16-dioxo-2,3,5,6,7,9,10,11,13a,14,14a,15,16,16a-tetradecahydro-1H-cyclopropa[i]pyrrolo[1,2-e][1,5,8]oxadiazacyclopentadecin-6-yl)carbamate]: the EC50 in assay [1] was in the range of 0.1 to 0.5 nM; in assay [2] it was 0.51 to 1 nM.
